Assay results from US12692491B2, “Nucleic acid complexes for screening barcoded compounds” (Children's Medical Center Corporation, priority 2015, dated 2026).

Columns and labels:
[1] = biological target: T1, streptavidin (Streptomyces avidinii, UniProt P22629); experiment: Desthiobiotin-streptavidin nanoswitch off-rate experiments; assay type: binding
T1 construct: purchased Rockland
Procedure: Desthiobiotin experiments were conducted in a similar manner as the biotin experiments with slight modifications. […] The off-rate of the desthiobiotin interaction is much faster than the typical 100 minute gel run time. Noting that once a loop opens in the gel, the reptation of the DNA prevents the loop from closing again, we ran samples for different amounts of time in the gel at 15 V/cm and 4° C. and quantified the fraction looped as a function of running time (Appendix A—Supplementary FIG. 5). In addition to allowing the determination of the desthiobiotin-streptavidin off rate, this gel also allowed us to determine the minimum amount of time required to achieve separation of the looped and unlooped bands in the gel. This enabled the use of the standard quenching technique for measuring desthiobiotin off-rates as described in the previous section; these gels were run at 15 V/cm for 10 minutes in pre-chilled electrophoresis buffer.

[2] = biological target: T1, streptavidin; experiment: Biotin-streptavidin nanoswitch on-rate and off-rate experiments; assay type: binding
Procedure: This construct used biotinylated versions of two oligonucleotides (var 4 and var 8), which were used in 4× molar excess to the scaffold, while all other oligonucleotides were used in a 10× molar excess. […] The final DNA construct was then diluted 100× from its original concentration of ~16 nM (to 160 pM), and mixed in equal volumes with streptavidin (Rockland) at 6 nM nominal concentration to form the loops, yielding final nominal concentrations of ~80 pM and 3 nM, respectively.
The 25° C. experiment was performed at room temperature, the 4° C. experiment was performed in a cold room, and the 37° C. and 50° C. experiments were performed using a thermal cycler. […] Actual concentrations used to determine the on-rates were measured using spectrophotometry and a HABA assay to determine streptavidin activity.
Off-rate measurements were performed by forming looped construct as described above, and letting the solution sit for at least 24 hours to allow the system to reach equilibrium. […] The 4° C. condition was done in a refrigerator, the 25° C. sample was done in a water bath, and the 37° C. and 50° C. temperatures were done in a thermal cycler. To run all the samples on a single gel, the quenching times were determined relative to the predetermined gel running time.
We additionally used Eyring analysis to fit the temperature dependence of the kinetic rates: […]

T1 sequence (P22629 25-183): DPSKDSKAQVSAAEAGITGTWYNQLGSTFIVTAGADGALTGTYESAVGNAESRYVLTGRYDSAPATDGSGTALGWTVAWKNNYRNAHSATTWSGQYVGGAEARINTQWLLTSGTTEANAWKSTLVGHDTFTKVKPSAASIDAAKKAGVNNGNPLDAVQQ

| Compound | off-rate of streptavidin-desthiobiotin ([1]; 4° C.) [min] | off-rate of streptavidin-desthiobiotin ([1]; room temperature) [min] | on-rate ([2]; 150 mM salt, room temperature) | equilibrium enthalpy change ΔH ([2]; calculated from on-rate and off-rate measurements) [kcal/mol] | dissociation time ([2]; physiological salt conditions and 25° C.) [days] |
| --- | --- | --- | --- | --- | --- |
| C[C@@H]1NC(=O)N[C@@H]1CCCCCC(=O)O [desthiobiotin] | 35.3 ± 7.5 | 8.6 ± 1.2 |  |  |  |
| O=C(O)CCCC[C@@H]1SC[C@@H]2NC(=O)N[C@@H]21 [biotin] |  |  | 4.0±0.7×10^6 M^−1s^−1 | 26.01 ± 0.05 | 9.7 ± 0.4 |
